Key:
Test in all cases: relative viability (nuclei count vs DMSO), 5 days (fraction); higher = more cells survive
Wnt-C59 + Alpelisib = compound: CC1=NC=CC(=C1)C2=CC=C(C=C2)CC(=O)NC3=CC=C(C=C3)C4=CN=CC=C4 [Wnt-C59] + Cc1nc(NC(=O)N2CCC[C@H]2C(N)=O)sc1-c1ccnc(C(C)(C)C(F)(F)F)c1 [Alpelisib] (partner 2 µM)
Summary of the method: (§1)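 Lung cancer cell lines in 1536-well plates got either a single drug or a fixed anchor-drug dose together with five library-drug doses (not always all listed) in √10 steps, by pin tool, on the day after seeding. Nuclei were counted after 5 days, and relative viability is the treated-to-vehicle ratio of nuclei counts. Values are medians of duplicate plates.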

Wnt-C59 + AZD7762 = compound: CC1=NC=CC(=C1)C2=CC=C(C=C2)CC(=O)NC3=CC=C(C=C3)C4=CN=CC=C4 [Wnt-C59] + NC(=O)Nc1cc(-c2cccc(F)c2)sc1C(=O)N[C@H]1CCCNC1 [AZD7762] (partner 0.2 µM)
Summary of the method: as §1

Wnt-C59 + Vorinostat = compound: CC1=NC=CC(=C1)C2=CC=C(C=C2)CC(=O)NC3=CC=C(C=C3)C4=CN=CC=C4 [Wnt-C59] + O=C(CCCCCCC(=O)Nc1ccccc1)NO [Vorinostat] (partner 1 µM)
Summary of the method: as §1

Lapatinib + Crizotinib = compound: CS(=O)(=O)CCNCc1ccc(-c2ccc3ncnc(Nc4ccc(OCc5cccc(F)c5)c(Cl)c4)c3c2)o1 [Lapatinib] + C[C@@H](Oc1cc(-c2cnn(C3CCNCC3)c2)cnc1N)c1c(Cl)ccc(F)c1Cl [Crizotinib] (partner 1 µM)
Summary of the method: as §1

Cell Line | relative viability (Wnt-C59 + Alpelisib; first compound 0.001 µM) | relative viability (Wnt-C59 + Alpelisib; first compound 0.01 µM) | relative viability (Wnt-C59 + Alpelisib; first compound 0.03162 µM) | relative viability (Wnt-C59 + Alpelisib; first compound 0.1 µM) | relative viability (Wnt-C59 + AZD7762; first compound 0.001 µM) | relative viability (Wnt-C59 + AZD7762; first compound 0.01 µM) | relative viability (Wnt-C59 + AZD7762; first compound 0.03162 µM) | relative viability (Wnt-C59 + AZD7762; first compound 0.1 µM) | relative viability (Wnt-C59 + Vorinostat; first compound 0.001 µM) | relative viability (Wnt-C59 + Vorinostat; first compound 0.01 µM) | relative viability (Wnt-C59 + Vorinostat; first compound 0.03162 µM) | relative viability (Wnt-C59 + Vorinostat; first compound 0.1 µM) | relative viability (Lapatinib + Crizotinib; first compound 0.02 µM) | relative viability (Lapatinib + Crizotinib; first compound 0.06325 µM) | relative viability (Lapatinib + Crizotinib; first compound 0.2 µM) | relative viability (Lapatinib + Crizotinib; first compound 0.6325 µM) | relative viability (Lapatinib + Crizotinib; first compound 2 µM)
NCI-H1755 | 0.932 | 0.891 | 0.907 | 0.908 | 0.498 | 0.433 | 0.436 | 0.473 | 0.721 | 0.71 | 0.744 | 0.752 | 0.851 | 0.82 | 0.899 | 0.818 | 0.809
EKVX | 0.931 | 0.783 | 0.73 | 0.668 | 0.871 |  | 0.689 | 0.651 | 0.805 | 0.585 | 0.574 | 0.557 | 0.868 | 0.68 | 0.89 | 0.647 | 0.214
IA-LM | 0.84 | 0.862 | 0.759 | 0.804 |  |  |  |  | 0.934 | 0.906 |  | 0.939 | 0.823 | 0.98 | 0.713 | 0.881 | 0.644
A-427 | 1.07 | 1 | 1.14 | 1.08 | 0.801 | 0.815 | 0.831 | 0.688 | 0.851 | 0.878 | 0.874 | 0.895 |  | 0.804 | 0.945 | 0.936 | 0.77
NCI-H1299 | 1.05 | 1.08 | 1.05 | 1.04 |  |  |  |  |  |  |  |  | 0.952 | 1.03 | 0.893 | 0.944 | 0.916
NCI-H1993 | 0.763 | 0.642 | 0.682 | 0.708 | 0.965 | 0.665 | 1.05 | 0.769 | 0.78 | 0.758 | 0.978 | 0.394 | 0.854 |  | 0.796 | 0.737 | 0.742
NCI-H1651 | 1.04 | 0.956 | 0.934 | 0.815 | 0.502 | 0.394 | 0.551 | 0.459 | 0.557 | 0.6 | 0.597 | 0.63 | 0.907 | 0.845 | 0.884 | 0.849 | 0.904
LXF-289 | 1.05 | 1.03 | 1.04 | 1.02 | 1.06 | 1.07 | 1.09 | 1.07 | 0.72 | 0.766 | 0.783 | 0.801 | 0.819 | 0.85 | 0.805 | 0.779 | 0.743
NCI-H1793 | 0.827 | 0.536 | 0.898 | 0.668 | 0.467 | 0.408 | 0.536 | 0.532 | 0.626 | 0.548 | 0.81 | 0.74 |  |  |  |  | 
NCI-H1650 |  |  |  |  |  |  |  |  | 0.69 | 0.638 | 0.606 | 0.516 | 0.977 | 0.795 | 0.854 | 0.9 | 0.596
SK-LU-1 | 0.996 | 0.992 | 1.08 | 1.05 |  |  |  |  | 0.672 | 0.768 | 0.81 | 0.682 |  | 0.814 | 0.992 | 1.07 | 0.859
COR-L 105 | 1.19 | 1.03 | 0.93 | 0.78 |  |  |  |  | 0.991 | 0.71 | 0.877 | 0.857 | 0.727 | 0.635 | 0.639 | 0.58 | 0.279
SW 1573 | 0.701 | 0.758 | 0.89 | 0.79 |  |  |  |  | 0.801 | 0.673 | 0.778 | 0.662 | 0.762 | 0.724 | 0.856 | 0.829 | 0.623
NCI-H2228 | 0.816 | 0.74 | 0.929 | 0.751 |  |  |  |  | 0.654 | 0.657 | 0.587 | 0.838 | 0.603 | 0.342 | 0.462 | 0.379 | 0.297
NCI-H520 | 0.932 | 0.969 | 1.06 | 0.785 |  |  |  |  | 0.742 | 0.683 | 0.686 | 0.634 | 0.726 | 0.759 | 0.863 | 0.812 | 0.745
NCI-H2023 | 0.627 | 0.622 | 0.656 | 0.508 |  |  |  |  | 0.757 | 0.499 | 0.742 | 0.487 | 0.539 | 0.419 | 0.491 | 0.633 | 0.281
COR-L23 | 0.776 | 0.752 | 0.775 | 0.725 |  |  |  |  | 0.457 | 0.452 | 0.624 | 0.454 | 0.71 | 0.676 | 0.697 | 0.602 | 0.581
NCI-H1703 | 0.33 | 0.328 | 0.352 | 0.283 | 0.158 | 0.107 | 0.135 | 0.129 |  |  |  |  | 0.696 | 0.873 | 0.774 | 0.879 | 0.63
A549 | 0.978 | 0.75 | 0.712 | 0.682 |  |  |  |  |  |  |  |  | 0.735 | 0.675 | 0.73 | 0.674 | 0.616
NCI-H2342 |  |  |  |  | 0.525 | 0.498 | 0.495 | 0.457 | 0.706 | 0.747 | 0.855 | 0.732 |  |  |  |  | 
NCI-H1792 | 0.707 | 0.693 | 0.806 | 0.785 | 0.659 | 0.676 | 0.701 | 0.854 |  |  |  |  | 0.92 | 0.987 | 0.985 | 0.946 | 0.918
NCI-H661 | 0.621 | 0.595 | 0.813 | 0.821 |  |  |  |  | 0.815 | 0.726 | 0.854 | 0.755 | 0.979 | 1.15 | 1.29 | 1.05 | 0.762
SW 900 |  |  |  |  | 0.602 | 0.615 | 0.555 | 0.562 | 0.475 | 0.343 | 0.479 | 0.488 |  |  |  |  | 
NCI-H1648 |  |  |  |  | 0.565 | 0.797 | 0.53 | 0.622 | 0.421 | 0.369 | 0.655 | 0.364 |  |  |  |  | 
